These results are taken from paper PMC11876601 (Molecular Systems Biology, 2025).

Like-named read-outs stand apart in the source and are kept apart here.

The subject of one assay is 13 PDAC cell lines. The assay is described as follows: Phenotypic drug combination viability screen (ATPlite, 72 h), cell line panel. Format: cell-based, human. The method, then: (§1) Cell viability was assessed by measuring ATP levels to indicate metabolic activity.
(§2) Afterward, small amounts were transferred to 384-well intermediate plates (Greiner Bio-One GmbH, Germany). […] For drug combination screening, 1000 to 5000 cells were seeded into 384-well plates (CulturPlate™, Perkin Elmer, MA, USA) using a Multidrop™ Combi Reagent Dispenser (Thermo Scientific, MA, USA) in 50 µl medium per well 24 h prior to drug treatment (seeding densities see Appendix Table S1). […] The final DMSO concentration in each well was 0.2%. […] Eight wells per plate without library drug served as negative controls, and sixteen wells per plate containing 5 µM Staurosporine served as positive controls. Control plates not containing any drug were used to correct for incubation effects, and data quality was assessed by calculation of Z-prime of positive and negative controls according to1 Z-prime=1−3SDpos+3SDneg/[…] where SD is the standard deviation. […] Dose–response curves from the experimental and hypothetical data were compared, and shifts in AUC were used to describe combination effects (AUC∆ = AUChypothetical − AUCexperimental). […] Only combinations with R^2 > 0.8 in both conditions were considered in the synergy analysis.

Assay [1] relates to AsPC-1. Description: cells. Also on record: Viability of PDAC cell lines, ATPlite luminescence, 11-dose single-agent curve fit. As to conditions: Homo sapiens, ASPC1, 72 h, read-out: EC50 [nM]. In outline: (§3)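 cells (1000 to 5000 per well) seeded 24 h before drug addition in a screen at 0.2% final DMSO. Controls were drug-free wells (negative) and 5 µM staurosporine (positive).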

Assay [2] relates to BxPC-3. Description: cells. Details: Viability of PDAC cell lines, ATPlite luminescence, 11-dose single-agent curve fit. The settings on record: Homo sapiens, BXPC-3, 72 h, read-out: EC50 [nM]. In outline: as §3
The subject of assay [3] is Capan-1. The assay is described as follows: cells. The settings on record: Homo sapiens, CAPAN-1, 72 h, read-out: EC50 [nM]. Also on record: Viability of PDAC cell lines, ATPlite luminescence, 11-dose single-agent curve fit. In short, it runs like this: as §3
The subject of assay [4] is Colo-357. The assay is described as follows: cells. As to conditions: Homo sapiens, COLO357, 72 h, read-out: EC50 [nM]. Details: Viability of PDAC cell lines, ATPlite luminescence, 11-dose single-agent curve fit. In short, it runs like this: as §3
Assay [5] has as its system Dan-G. The assay is described as follows: cells. The settings on record: 72 h, read-out: EC50 [nM]. Also on record: Viability of PDAC cell lines, ATPlite luminescence, 11-dose single-agent curve fit. In short, it runs like this:
as §3

Assay [6] concerns FAMPAC. Description: cells. As to conditions: 72 h, read-out: EC50 [nM]. Details: Viability of PDAC cell lines, ATPlite luminescence, 11-dose single-agent curve fit. In outline: as §3
The subject of assay [7] is HPDE. The assay is described as follows: cells. Also on record: Viability of PDAC cell lines, ATPlite luminescence, 11-dose single-agent curve fit. As to conditions: HPDE, 72 h, read-out: EC50 [nM]. In short, it runs like this:
as §3

Assay [8] relates to HuP-T4. The assay is described as follows: cells. Also on record: Viability of PDAC cell lines, ATPlite luminescence, 11-dose single-agent curve fit. As to conditions: Homo sapiens, HuP-T4, 72 h, read-out: EC50 [nM]. In outline: as §3
The test system of assay [9] is MiaPaCa-2. The assay is described as follows: cells. As to conditions: Homo sapiens, MIA PaCa-2, 72 h, read-out: EC50 [nM]. Also on record: Viability of PDAC cell lines, ATPlite luminescence, 11-dose single-agent curve fit. In outline:
as §3

For assay [10], the system named is PANC-1. The assay is described as follows: cells. Details: Viability of PDAC cell lines, ATPlite luminescence, 11-dose single-agent curve fit. As to conditions: Homo sapiens, PANC-1, 72 h, read-out: EC50 [nM]. In outline:
as §3

The subject of assay [11] is PSN-1. The assay is described as follows: cells. Details: Viability of PDAC cell lines, ATPlite luminescence, 11-dose single-agent curve fit. The settings on record: Homo sapiens, PSN1, 72 h, read-out: EC50 [nM]. In outline: as §3
In assay [12] the test system is PaTu-8988-T. Description: cells. As to conditions: Homo sapiens, PaTu 8988t, 72 h, read-out: EC50 [nM]. Details: Viability of PDAC cell lines, ATPlite luminescence, 11-dose single-agent curve fit. In outline:
as §3

For assay [13], the system named is Suit2-07. Description: cells. Also on record: Viability of PDAC cell lines, ATPlite luminescence, 11-dose single-agent curve fit. The settings on record: 72 h, read-out: EC50 [nM]. In short, it runs like this:
as §3

Assay [14] concerns Capan-1. The assay is described as follows: cells. As to conditions: Homo sapiens, CAPAN-1, 72 h, read-out: EC50 [nM]. Also on record: ATPlite luminescence viability of PDAC cell lines, 11-dose single-agent curves, 4-parameter fit. In outline: (§4)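 cells (1000 to 5000 per well) seeded 24 h before drug addition in a combination screen at 0.2% final DMSO. Controls were drug-free wells (negative) and 5 µM staurosporine (positive).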

In assay [15] the test system is Colo-357. Description: cells. As to conditions: Homo sapiens, COLO357, 72 h, read-out: EC50 [nM]. Details: ATPlite luminescence viability of PDAC cell lines, 11-dose single-agent curves, 4-parameter fit. In outline:
as §4

For assay [16], the system named is Dan-G. Description: cells. Also on record: ATPlite luminescence viability of PDAC cell lines, 11-dose single-agent curves, 4-parameter fit. The settings on record: 72 h, read-out: EC50 [nM]. In outline:
as §4

Assay [17] relates to FAMPAC. The assay is described as follows: cells. The settings on record: 72 h, read-out: EC50 [nM]. Also on record: ATPlite luminescence viability of PDAC cell lines, 11-dose single-agent curves, 4-parameter fit. In outline:
as §4

In assay [18] the test system is MiaPaCa-2. Description: cells. Also on record: ATPlite luminescence viability of PDAC cell lines, 11-dose single-agent curves, 4-parameter fit. The settings on record: Homo sapiens, MIA PaCa-2, 72 h, read-out: EC50 [nM]. In outline: as §4
For assay [19], the system named is PSN-1. Description: cells. Details: ATPlite luminescence viability of PDAC cell lines, 11-dose single-agent curves, 4-parameter fit. As to conditions: Homo sapiens, PSN1, 72 h, read-out: EC50 [nM]. In short, it runs like this:
as §4

The test system of assay [20] is Suit2-07. The assay is described as follows: cells. As to conditions: 72 h, read-out: EC50 [nM]. Details: ATPlite luminescence viability of PDAC cell lines, 11-dose single-agent curves, 4-parameter fit. In short, it runs like this:
as §4

Assay [21] concerns HPDE (immortalized pancreatic duct cell line). The assay is described as follows: Drug combination viability screen (ATPlite, 72 h).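 Note: area under vehicle-normalized viability curve scaled 0 to 100 percent.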 Format: cell-based, human. The settings on record: single agent, HPDE. The method, then:
as §1, §2
(In general: ATP-based viability assays read luminescence as a measure of living cells.)

Assay [22] concerns AsPC-1. The assay is described as follows: cells. Also on record: ATPlite luminescence viability of PDAC cell lines, 11-dose single-agent curves, 4-parameter fit. The settings on record: Homo sapiens, ASPC1, 72 h, read-out: EC50 [nM]. In short, it runs like this: as §4
Assay [23] has as its system BxPC-3. Description: cells. Details: ATPlite luminescence viability of PDAC cell lines, 11-dose single-agent curves, 4-parameter fit. As to conditions: Homo sapiens, BXPC-3, 72 h, read-out: EC50 [nM]. In outline:
as §4

Assay [24] relates to HPDE. Description: cells. Details: ATPlite luminescence viability of PDAC cell lines, 11-dose single-agent curves, 4-parameter fit. As to conditions: HPDE, 72 h, read-out: EC50 [nM]. In short, it runs like this: as §4
In assay [25] the test system is HuP-T4. Description: cells. Details: ATPlite luminescence viability of PDAC cell lines, 11-dose single-agent curves, 4-parameter fit. The settings on record: Homo sapiens, HuP-T4, 72 h, read-out: EC50 [nM]. In outline:
as §4

Assay [26] deals with PaTu-8988-T. Description: cells. Details: ATPlite luminescence viability of PDAC cell lines, 11-dose single-agent curves, 4-parameter fit. As to conditions: Homo sapiens, PaTu 8988t, 72 h, read-out: EC50 [nM]. In outline: as §4
Assay [27] deals with PANC-1. Description: cells. Details: ATPlite luminescence viability of PDAC cell lines, 11-dose single-agent curves, 4-parameter fit. The settings on record: Homo sapiens, PANC-1, 72 h, read-out: EC50 [nM]. In outline:
as §4

What is called EC50 is the concentration giving half of the maximal effect. Turning to `CO[C@H]1C[C@@H]2CC[C@@H](C)[C@@](O)(O2)C(=O)C(=O)N2CCCC[C@H]2C(=O)O[C@H]([C@H](C)C[C@@H]2CC[C@@H](OC(=O)C(C)(CO)CO)[C@H](OC)C2)CC(=O)[C@H](C)/C=C(\C)[C@@H](O)[C@@H](OC)C(=O)[C@H](C)C[C@H](C)/C=C/C=C/C=C/1C` [Temsirolimus], in the assay on 13 PDAC cell lines (single agent, 72 h), the “median AUC across all cell lines” value is over 80%. For the same compound, the EC50 worked out at 1.54 nM with AsPC-1 [1]; 0.06 nM with BxPC-3 [2]; 0.08 nM with Capan-1 [3]; 4160 nM in the assay on Colo-357 [4]; 1.3 nM in the assay on Dan-G [5]; 0.13 nM in the assay on FAMPAC [6]. For the same compound, the EC50 was 0.19 nM in the assay on HPDE [7]; 30.2 nM in the assay on HuP-T4 [8]; 2.17 nM with MiaPaCa-2 [9]; 29.2 nM in the assay with PANC-1 [10]; 0.57 nM with PSN-1 [11]; 0.57 nM in the assay on PaTu-8988-T [12]. The concentration giving a half-maximal response (EC50) with Suit2-07 [13] is 0.35 nM.
As to `Cn1ncnc1[C@H]1c2n[nH]c(=O)c3cc(F)cc(c23)N[C@@H]1c1ccc(F)cc1` [Talazoparib], in the assay on 13 PDAC cell lines (of 13 cell lines, Bliss model), the “number of cell lines with synergy with GEM” value is on record as “two”. Further, the EC50 in the assay with Capan-1 [14] was 507 nM; with Colo-357 [15] it was 355 nM; in the assay on Dan-G [16], 268 nM; in the assay on FAMPAC [17], 693 nM; with MiaPaCa-2 [18] it was 825 nM; in the assay on PSN-1 [19], 405 nM. For the same compound, the EC50 was 113 nM with Suit2-07 [20]; 2650 nM in the assay with AsPC-1 [1]; 2960 nM with BxPC-3 [2]; over 10000 nM in the assay with HPDE [7]; 6060 nM in the assay with HuP-T4 [8]; 1590 nM with PANC-1 [10]. Besides, the EC50 in the assay on PaTu-8988-T [12] was over 10000 nM.
Turning to `CCOc1cc2ncc(C#N)c(Nc3ccc(OCc4ccccn4)c(Cl)c3)c2cc1NC(=O)/C=C/CN(C)C` [Neratinib], the AUC in [21] is listed as under 60%. Moreover, the EC50 in the assay with AsPC-1 [22] came out at 816 nM; with BxPC-3 [23], 1210 nM; in the assay on Capan-1 [14], 6740 nM; in the assay on Colo-357 [15], 1280 nM; in the assay with Dan-G [16] it was 7080 nM; in the assay on FAMPAC [17], 1320 nM. Also, the EC50 in the assay on HPDE [24] is 60.8 nM; in the assay with HuP-T4 [25], over 10000 nM; in the assay with MiaPaCa-2 [18] it was 863 nM; in the assay with PSN-1 [19], over 10000 nM; in the assay with PaTu-8988-T [26] it was 835 nM; with Suit2-07 [20], 1400 nM. The EC50 with PANC-1 [10] was 8210 nM.
With `COc1cc2ncnc(Nc3ccc(F)c(Cl)c3)c2cc1NC(=O)/C=C/CN1CCCCC1` [Dacomitinib], the AUC in assay [21] was under 60%. The EC50 in the assay with AsPC-1 [22] was over 10000 nM; in the assay on BxPC-3 [23] it was over 10000 nM; in the assay with Capan-1 [14] it was 10300 nM; in the assay with Colo-357 [15], 909 nM; with Dan-G [16], 2440 nM; with FAMPAC [17] it was 3270 nM. The EC50 with HPDE [24] is 46.5 nM; in the assay on HuP-T4 [25], over 10000 nM; in the assay with MiaPaCa-2 [18] it was 2210 nM; in the assay with PANC-1 [27], 3920 nM; in the assay with PSN-1 [19], 3850 nM; in the assay on PaTu-8988-T [26], 2200 nM. Moreover, the EC50 in the assay with Suit2-07 [20] is 1730 nM.
